According to patent US11407825B2, “NaPi2b-targeted polymer antibody-drug conjugates and methods of use thereof” (Mersana Therapeutics, Inc., priority 2018, dated 2022):
Square brackets hold non-standard residues; d marks the D form. Peptide text beside a SMILES is read from it. * marks the point of attachment. Dolaproine = CO[C@@H]([C@@H]1CCCN1)[C@@H](C)C(=O)O; Dil = CC[C@H](C)[C@H](NC)[C@@H](CC(=O)O)OC; NMe2Val = CC(C)[C@@H](C(=O)*)N(C)C; NH(3-hydroxypropyl) = OCCCN*

Assay: Plasma PK profile in patients dosed with XMT-1536
Type: in vivo, human
Details: after XMT-1536
Procedure: The PK profile of the active ingredient of XMT-1536, its release product and selected metabolites are determined for each patient by non-compartmental analysis using standard PK software (e.g., Phoenix WinNonlin). PK parameters per patient include time of maximum observed concentration (tmax), maximum concentration (Cmax), and area under the concentration curve for the last measurable concentration (AUC0-last). When the terminal elimination phase is identified, additional parameters such as elimination half-life, clearance, and volume of distribution are determined.
The plasma PK profile for the analytes (total antibody; conjugated drug (AF-HPA); free drug (AF-HPA) and the drug metabolite auristatin F (AF)) was determined in blood samples from 30 patients (3 mg/m^2, n=1; 6 mg/m^2, n=1; 12 mg/m^2, n=7; 20 mg/m^2, n=15; 30 mg/m^2, n=5; 40 mg/m^2, n=1). […] The PK characteristics is consistent with that reported for other approved antibody-drug conjugates or those currently in clinical development.

Compound	accumulation after administration of multiple doses	systemic exposure compared to that of the conjugated drug
CC[C@H](C)[C@@H]([C@@H](CC(=O)N1CCC[C@H]1[C@H](OC)[C@@H](C)C(=O)N[C@@H](Cc1ccccc1)C(=O)O)OC)N(C)C(=O)[C@@H](NC(=O)[C@H](C(C)C)N(C)C)C(C)C [AF, auristatin F] (NMe2Val-V[Dil][Dolaproine]F-OH)	no accumulation	low systemic expose
CC[C@H](C)[C@@H]([C@@H](CC(=O)N1CCC[C@H]1[C@H](OC)[C@@H](C)C(=O)N[C@@H](Cc1ccccc1)C(=O)NCCCO)OC)N(C)C(=O)[C@@H](NC(=O)[C@H](C(C)C)N(C)C)C(C)C [AF-HPA, Auristatin F-hydroxypropyl amide] (NMe2Val-V[Dil][Dolaproine]F-{NH(3-hydroxypropyl)})	no accumulation	low systemic expose
